This is an account of results in paper PMC8016939 (2021).

Molecules are shown by their SMILES.

Test [1] has as its system Baby Spinach (bSP) (RNA, aptamer) GGUGAAGGACGGGUCCAGUAGUUCGCUACUGUUGAGUAGAGUGUGAGCUCC
Kind of test: fluorescence titration plus absorption spectra, multiple-site model. The settings on record: 50 mM KCl, 5 mM MgCl2; 10 mM HEPES pH 7.5, 2 µM DFHBI, flow-cell; site 1 of 2 (fluorescent complex); derived as K x p, p = 1.8.

For test [2] the test system is unchanged. Put plainly: fluorescence titration, 1:1 model. To be noted: 50 mM KCl, 5 mM MgCl2; 10 mM HEPES pH 7.5, 2 µM DFHBI, flow-cell; apparent (one-site model).

As for `CC1=N/C(=C\c2cc(F)c(O)c(F)c2)C(=O)N1C`, the results for the Kd in test [1] and in test [2] were 7.9 ± 0.2 µM and 4.4 µM, respectively.
